{
  "source": "patent US10800741B2",
  "about": "(ANCUREALL PHARMACEUTICAL (SHANGHAI) CO., LTD., priority 2017, dated 2020)",
  "key": {"AN3-CA": {"test_system": "AN3-CA", "assay": "AN3-CA subcutaneous transplantation tumor model, tumor growth inhibition in vivo", "design": "species or system Bab/c immunodeficient mice", "settings": "5 mg/kg i.p once a day, 17th day after the administration", "text": "(§1) Test Example 7 Inhibition of Tumour Cell Growth In Vivo\n(§2) In order to establish subcutaneous transplantation tumor models of human non-small cell lung cancer and endometrial adenocarcinoma, Bab/c immunodeficient mice were subcutaneously inoculated with NCI-H1581 (ATCC) and AN3-CA (ATCC) cells, respectively.\nExperimental animals: 6-week female Bab/c immunodeficient mice (about 20 g in weight). The mice were purchased from Shanghai Sippr-BK Experimental Animal Co., Ltd., raised in Animal Center of Shanghai University of Traditional Chinese Medicine, approved by Ethical Committee of Shanghai University of Traditional Chinese Medicine. The breeding environment was SPF grade. […]\nWhen the tumor volume reached 100˜200 mm^3, the mice were randomly divided according to tumor size. […] The tumor was measured three times a week, and the tumor volume was calculated as: long diameter×short diameter^2/2. […] Efficacy was assessed based on relative tumor growth inhibition value (TGI), and safety was assessed based on animal weight change. […]\n(§3) Tumor volume data of 17 days after the start of administration were selected for statistical analysis among different groups, and independent sample T test was used to compare whether there were significant differences in relative tumor volume between the administration group and the control group. All data were analyzed using SPSS 18.0. […]"}, "NCI-H1581": {"test_system": "NCI-H1581", "assay": "NCI-H1581 subcutaneous transplantation tumor model, tumor growth inhibition in vivo", "design": "species or system Bab/c immunodeficient mice", "settings": "17th day after the administration", "text": "as §1, §2\nExperimental animals: 6-week female Bab/c immunodeficient mice (about 20 g in weight). The mice were purchased from Shanghai Sippr-BK Experimental Animal Co., Ltd., raised in Animal Center of Shanghai University of Traditional Chinese Medicine, approved by Ethical Committee of Shanghai University of Traditional Chinese Medicine. The breeding environment was SPF grade.\nTest samples: the present compounds 66 (purity: 99%), solid powder, stored at 4˜8° C.\nCells and animal models: NCI-H1581 cells were cultured in RPMI 1640 medium containing 10% fetal bovine serum. Log-phase NCI-H1581 cells were collected and re-suspended with PBS to 2.5×10^7 cells per ml for subcutaneous single-point inoculation of Bab/c immunodeficient mice at the right side of the back of mouse (5×10^6 cells, 0.2 ml).\nWhen the tumor volume reached 100˜200 mm^3, the mice were randomly divided according to tumor size. The experiment was divided into solvent control group and drug administration group (compound 66 group). 6 mice in each group were administered 0.1 ml per 10 g body weight by intraperitoneal injection (i.p) once a day. The tumor was measured three times a week, and the tumor volume was calculated as: long diameter×short diameter^2/2. When the average tumor volume of the control group reached 2000 mm^3, the experiment was over and then the tumor was weighed and subjected to molecular pathology assay. Efficacy was assessed based on relative tumor growth inhibition value (TGI), and safety was assessed based on animal weight change.\nPreparation of test samples: appropriate amount of compound 66 was weighed and mixed with ultrapure water; and methanesulfonic acid was added for clarification; and then 4M NaOH was added to adjust the PH to 3.8; and a final volume was made up with ultrapure water. The final concentrations were 0.5 mg/ml and 0.25 mg/ml, respectively.\nT/C % refers to the relative tumor growth rate, that is, the percentage of relative tumor volume or tumor weight of the administration group and the control group at a certain time point. […]\nas §3"}, "[1]": {"test_system": "human intestinal cancer cell line HCT116 (KRAS G13D mutation)", "assay": "Growth inhibition in combination with MEK1/2 inhibitor Trametinib, HCT116 (KRAS G13D mutation)", "type": "cell-based", "settings": "5 days", "method": "Test Example 5 Synergistic Inhibition Effect of the Present Compounds in Combination with MEK1/2 Inhibitor on the Growth of RAS Mutant Tumor Cells In Vitro\nThe cell culture, drug treatment and MTT assay of human intestinal cancer cell line HCT116 (KRAS G13D mutation) and human non-small cell lung cancer cell line NCI-H1299 (NRAS Q61K mutation) were performed according to the method of test example 1. Cells were treated with the MEK1/2 inhibitor Trametinib at 25 nM, 2.5 nM and 0.25 nM alone or in combination with compound 66 or 125 of the present invention (5 days)."}},
  "data": [
    {"smiles": "COCCOc1cc2nccc(Oc3ccc(NC(=O)Nc4cc(C(C)(C)C)n[nH]4)c(Cl)c3)c2cc1NC(C)=O", "note": "[Compound 66, N-[4-{4-[3-(5-tert-butyl-2H-pyrazol-3-yl)-ureido]-3-chloro-phenoxy}-7-(2-methoxy-ethoxy)-quinolin-6-yl]-acetamide]", "values": [
      {"measurement": "T/C (%)", "setting": "AN3-CA", "value": 1.37, "unit": "%"},
      {"measurement": "TGI (%)", "setting": "AN3-CA", "value": 98.63, "unit": "%"},
      {"measurement": "T/C (%)", "setting": "NCI-H1581; 2.5 mg/kg i.p once a day", "value": 7.91, "unit": "%"},
      {"measurement": "TGI (%)", "setting": "NCI-H1581; 2.5 mg/kg i.p once a day", "value": 92.09, "unit": "%"},
      {"measurement": "T/C (%)", "setting": "NCI-H1581; 5 mg/kg i.p once a day", "value": 1.07, "unit": "%"},
      {"measurement": "TGI (%)", "setting": "NCI-H1581; 5 mg/kg i.p once a day", "value": 98.93, "unit": "%"},
      {"measurement": "inhibition at 0.0078 µM", "setting": "[1]; Homo sapiens, HCT-116, 120 h, compound 7.8 nM alone (solvent instead of Trametinib), read-out: cell growth inhibition (percentage)", "value": 7.67, "unit": "%"},
      {"measurement": "inhibition at 0.0156 µM", "setting": "[1]; Homo sapiens, HCT-116, 120 h, compound 15.6 nM alone (solvent instead of Trametinib), read-out: cell growth inhibition (percentage)", "value": 22, "unit": "%"},
      {"measurement": "cell growth inhibition (percentage)", "setting": "[1]; compound 7.8 nM + Trametinib 0.25 nM", "value": 62.24, "unit": "%"},
      {"measurement": "cell growth inhibition (percentage)", "setting": "[1]; compound 7.8 nM + Trametinib 2.5 nM", "value": 73.79, "unit": "%"},
      {"measurement": "cell growth inhibition (percentage)", "setting": "[1]; compound 7.8 nM + Trametinib 25 nM", "value": 80.52, "unit": "%"},
      {"measurement": "cell growth inhibition (percentage)", "setting": "[1]; compound 15.6 nM + Trametinib 0.25 nM", "value": 66.72, "unit": "%"},
      {"measurement": "cell growth inhibition (percentage)", "setting": "[1]; compound 15.6 nM + Trametinib 2.5 nM", "value": 77.07, "unit": "%"},
      {"measurement": "cell growth inhibition (percentage)", "setting": "[1]; compound 15.6 nM + Trametinib 25 nM", "value": 81.03, "unit": "%"}
    ]}
  ]
}
